# Measured values: ChEMBL document CHEMBL1201862, “PubChem BioAssay data set” (2004)
#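 Values below derive from 48-hour exposures of cells grown in 96-well plates, with endpoints linearly interpolated between the two concentrations bracketing the appropriate inhibition level. The concentration for 50% growth inhibition is given as GI50.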 Active and inactive are the calls of the source. No stated cut-off is given here; in the data, active = GI50 up to about 1.1 µM and inactive = higher.
# What was measured:
# Assay in all cases: growth of human tumour cells (NCI), 48 h
# [1] = test system: NCI-H522
# [2] = test system: OVCAR-3
# [3] = test system: ACHN
# [4] = test system: 786-0
# [5] = test system: SK-MEL-5
# [6] = test system: SF-268
# [7] = test system: HL-60
# [8] = test system: NCI-H226
# [9] = test system: IGROV-1
# [10] = test system: NCI/ADR-RES
# [11] = test system: SW-620
# [12] = test system: SK-MEL-28
# [13] = test system: TK-10
# [14] = test system: MDA-MB-435
# [15] = test system: RXF 393
# [16] = test system: SF-295
# [17] = test system: KM12
# [18] = test system: MDA-MB-231
# [19] = test system: SK-MEL-2
# [20] = test system: HCT-15
# [21] = test system: U-251
# [22] = test system: HOP-92
# [23] = test system: Hs-578T
# [24] = test system: UACC-257
# [25] = test system: COLO 205
# [26] = test system: OVCAR-5
# [27] = test system: Malme-3M
# [28] = test system: A549
# [29] = test system: SK-OV-3
# [30] = test system: LOX IMVI
# [31] = test system: MDA-N
# [32] = test system: SN12C
# [33] = test system: SNB-75
# [34] = test system: HT-29
# [35] = test system: UACC-62
# [36] = test system: HCT-116
# [37] = test system: OVCAR-4
# [38] = test system: RPMI-8226
# [39] = test system: EKVX
# [40] = test system: A498
# [41] = test system: DU-145
# [42] = test system: SF-539
# [43] = test system: SNB-19
# [44] = test system: NCI-H23
# [45] = test system: CAKI-1
# [46] = test system: HCC 2998
# [47] = test system: BT-549
# [48] = test system: MCF7
# [49] = test system: M14
# [50] = test system: CCRF-CEM
# [51] = test system: NCI-H460
# [52] = test system: PC-3
# [53] = test system: OVCAR-8
# [54] = test system: UO-31
# [55] = test system: T47D
structure (smiles),measurement,setting,value
Cc1ccc(C)c2c1n1c(=O)n(C)c(=O)n21,GI50,[1],> 100 µM (inactive)
same,GI50,[2],> 100 µM (inactive)
same,GI50,[3],> 100 µM (inactive)
same,GI50,[4],> 100 µM (inactive)
same,GI50,[5],> 100 µM (inactive)
same,GI50,[6],> 100 µM (inactive)
same,GI50,[7],> 100 µM (inactive)
same,GI50,[8],> 100 µM (inactive)
same,GI50,[9],> 100 µM (inactive)
same,GI50,[10],> 100 µM (inactive)
same,GI50,[11],> 100 µM (inactive)
same,GI50,[12],> 100 µM (inactive)
same,GI50,[13],> 100 µM (inactive)
same,GI50,[14],> 100 µM (inactive)
same,GI50,[15],> 100 µM (inactive)
same,GI50,[16],> 100 µM (inactive)
same,GI50,[17],> 100 µM (inactive)
same,GI50,[18],> 100 µM (inactive)
same,GI50,[19],> 100 µM (inactive)
same,GI50,[20],> 100 µM
same,GI50,[21],> 100 µM (inactive)
same,GI50,[22],> 100 µM (inactive)
same,GI50,[23],> 100 µM (inactive)
same,GI50,[24],> 100 µM (inactive)
same,GI50,[25],> 100 µM (inactive)
same,GI50,[26],> 100 µM (inactive)
same,GI50,[27],> 100 µM (inactive)
same,GI50,[28],> 100 µM (inactive)
same,GI50,[29],> 100 µM (inactive)
same,GI50,[30],> 100 µM (inactive)
same,GI50,[31],> 100 µM (inactive)
same,GI50,[32],> 100 µM (inactive)
same,GI50,[33],> 100 µM (inactive)
same,GI50,[34],> 100 µM (inactive)
same,GI50,[35],> 100 µM (inactive)
same,GI50,[36],> 100 µM (inactive)
same,GI50,[37],> 100 µM (inactive)
same,GI50,[38],> 100 µM (inactive)
same,GI50,[39],> 100 µM (inactive)
same,GI50,[40],> 100 µM (inactive)
same,GI50,[41],> 100 µM (inactive)
same,GI50,[42],> 100 µM (inactive)
same,GI50,[43],> 100 µM (inactive)
same,GI50,[44],> 100 µM (inactive)
same,GI50,[45],> 100 µM (inactive)
same,GI50,[46],> 100 µM (inactive)
same,GI50,[47],> 100 µM (inactive)
same,GI50,[48],> 100 µM (inactive)
same,GI50,[49],> 100 µM (inactive)
same,GI50,[50],> 100 µM (inactive)
same,GI50,[51],> 100 µM (inactive)
same,GI50,[52],> 100 µM (inactive)
same,GI50,[53],> 100 µM (inactive)
same,GI50,[54],> 100 µM (inactive)
same,GI50,[55],> 100 µM (inactive)
